Results as given in US20240208992A1, “MACROCYCLES AS CFTR MODULATORS” (Idorsia Pharmaceuticals Ltd, priority 2021, published 2024).

Target: human F508del-CFTR (Homo sapiens, UniProt P13569, DEL508-508)
Test: F508del-CFTR cell surface expression (corrector activity), DiscoveRx ß-galactosidase complementation chemiluminescence assay in recombinant U2OS cell line;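 also: U2OS cells co-expressing ProLink-tagged F508del-CFTR and a membrane-anchored enzyme acceptor, where more surface CFTR restores β-galactosidase activity measured by chemiluminescence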
Conditions: for EC50: EC50, F508del-CFTR cell surface expression, geomean values; for Emax: U2OS, arithmetic mean values
[1] = U2OS cells, 16h compound incubation
[2] = in relation to Emax of corrector lumacaftor (=100%)
[3] = U2OS cell line, 16h compound incubation
[4] = in relation to the Emax of the corrector lumacaftor (=100%), U2OS cell line, 16h compound incubation

human F508del-CFTR, sequence (P13569 with tags, fused parts or gaps DEL508-508): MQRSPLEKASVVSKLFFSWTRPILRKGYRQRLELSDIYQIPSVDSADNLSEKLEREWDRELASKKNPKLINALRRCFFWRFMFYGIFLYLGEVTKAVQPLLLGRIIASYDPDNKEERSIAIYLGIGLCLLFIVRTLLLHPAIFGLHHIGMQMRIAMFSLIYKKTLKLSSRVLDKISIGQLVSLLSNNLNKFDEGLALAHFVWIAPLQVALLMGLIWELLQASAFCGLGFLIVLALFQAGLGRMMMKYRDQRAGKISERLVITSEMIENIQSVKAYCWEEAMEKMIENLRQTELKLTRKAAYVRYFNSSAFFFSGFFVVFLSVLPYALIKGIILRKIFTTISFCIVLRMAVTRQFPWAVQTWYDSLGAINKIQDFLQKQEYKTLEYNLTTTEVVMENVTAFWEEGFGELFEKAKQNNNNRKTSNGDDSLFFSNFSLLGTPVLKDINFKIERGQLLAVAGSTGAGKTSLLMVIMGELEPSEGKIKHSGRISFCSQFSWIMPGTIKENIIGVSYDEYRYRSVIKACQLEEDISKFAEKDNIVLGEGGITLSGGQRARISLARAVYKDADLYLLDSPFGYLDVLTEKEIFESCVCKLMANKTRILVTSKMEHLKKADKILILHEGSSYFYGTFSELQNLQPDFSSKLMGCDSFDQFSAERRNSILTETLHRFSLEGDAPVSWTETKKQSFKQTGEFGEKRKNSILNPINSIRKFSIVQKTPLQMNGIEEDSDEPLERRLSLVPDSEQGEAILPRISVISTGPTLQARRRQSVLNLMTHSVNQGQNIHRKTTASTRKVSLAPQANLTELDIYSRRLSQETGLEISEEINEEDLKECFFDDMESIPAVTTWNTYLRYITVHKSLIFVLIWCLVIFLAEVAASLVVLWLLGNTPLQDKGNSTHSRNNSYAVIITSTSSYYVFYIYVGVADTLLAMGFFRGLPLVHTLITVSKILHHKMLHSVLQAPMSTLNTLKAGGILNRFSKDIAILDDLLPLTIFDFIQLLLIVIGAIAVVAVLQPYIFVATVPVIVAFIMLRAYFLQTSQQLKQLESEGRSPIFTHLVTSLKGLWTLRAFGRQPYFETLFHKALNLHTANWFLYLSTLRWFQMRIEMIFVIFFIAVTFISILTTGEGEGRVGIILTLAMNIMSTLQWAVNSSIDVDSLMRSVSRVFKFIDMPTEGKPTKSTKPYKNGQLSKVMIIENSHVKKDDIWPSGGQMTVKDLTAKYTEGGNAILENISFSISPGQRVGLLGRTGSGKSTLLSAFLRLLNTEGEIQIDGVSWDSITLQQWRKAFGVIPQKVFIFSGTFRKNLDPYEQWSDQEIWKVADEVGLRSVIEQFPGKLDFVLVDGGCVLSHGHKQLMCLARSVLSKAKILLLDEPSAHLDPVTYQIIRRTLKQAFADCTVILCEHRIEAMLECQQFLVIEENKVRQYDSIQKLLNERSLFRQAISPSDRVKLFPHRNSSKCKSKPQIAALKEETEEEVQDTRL

| EC50 [1] | Emax [2] | SMILES | EC50 [3] | Emax [4] |
| --- | --- | --- | --- | --- |
| 436 nM | 332% | COc1cc(CCNC(=O)[C@@H]2CC(=O)N(C)[C@@H](CC(C)C)C(=O)N(C)C3(CC3)C(=O)N[C@H](Cc3ccccc3)COc3cnc4ccccc4c3C(=O)N2)on1 [Example 686, (3′S,7′S,13′R)-13′-benzyl-7′-isobutyl-N-(2-(3-methoxyisoxazol-5-yl)ethyl)-6′,9′-dimethyl-1′,5′,8′,11′-tetraoxo-2′,3′,4′,5′,6′,7′,8′,9′,11′,12′,13′,14′-dodecahydro-1′H-spiro[cyclopropane-1,10′-[1]oxa[4,7,10,14]tetraazacycloheptadecino[17,16-c]quinoline]-3′-carboxamide] |  |  |
| 908 nM | 149% | COc1cc2c(cn1)OC[C@@H](Cc1ccccc1)NC(=O)C1(CC1)N(C)C(=O)[C@H](CC(C)C)N(C)C(=O)C[C@@H](C(=O)NCCc1noc(C3CC3)n1)NC2=O [Example 649, (3′R,9′S,13′S)-3′-benzyl-N-(2-(5-cyclopropyl-1,2,4-oxadiazol-3-yl)ethyl)-9′-isobutyl-17′-methoxy-7′,10′-dimethyl-5′,8′,11′,15′-tetraoxo-2′,3′,4′,5′,8′,9′,10′,11′,12′,13′,14′,15′-dodecahydro-7′H-spiro[cyclopropane-1,6′-pyrido[4,3-p][1]oxa[4,7,10,14]tetraazacycloheptadecine]-13′-carboxamide] |  |  |

The remaining lines, values behind:

| SMILES | EC50 [1] | Emax [2] | EC50 [3] | Emax [4] |
| --- | --- | --- | --- | --- |
| COc1cccc2c1C(=O)N[C@H](C(=O)NCCc1ccc3c(c1)OCCCO3)CC(=O)N(C)[C@@H](CC(C)C)C(=O)N(CCC1CCCCC1)CC(=O)N[C@H](Cc1ccccc1)CO2 (mixture of isomers) [Example 12, (3R,9S,13RS)-3-benzyl-7-(2-cyclohexylethyl)-N-(2-(3,4-dihydro-2H-benzo[b][1,4]dioxepin-7-yl)ethyl)-9-isobutyl-16-methoxy-10-methyl-5,8,11,15-tetraoxo-2,3,4,5,6,7,8,9,10,11,12,13,14,15-tetradecahydrobenzo[p][1]oxa[4,7,10,14]tetraazacycloheptadecine-13-carboxamide] |  |  | 270 nM |  |
| COc1cccc(CCNC(=O)[C@@H]2CC(=O)N(C)[C@@H](C)C(=O)N(CCC3CCCCC3)CC(=O)N[C@H](Cc3ccccc3)COc3cccc(OC)c3C(=O)N2)c1 [Example 264, (3R,9S,13S)-3-benzyl-7-(2-cyclohexylethyl)-16-methoxy-N-(3-methoxyphenethyl)-9,10-dimethyl-5,8,11,15-tetraoxo-2,3,4,5,6,7,8,9,10,11,12,13,14,15-tetradecahydrobenzo[p][1]oxa[4,7,10,14]tetraazacycloheptadecine-13-carboxamide] |  |  | 442 nM | 117% |
| CC(C)C[C@H]1C(=O)N2CCCC[C@@H]2C(=O)N[C@H](Cc2ccccc2)COc2cnc3ccccc3c2C(=O)N[C@H](C(=O)NCCc2ccc(F)cc2F)CC(=O)N1C [Example 94, (9S,13S,19aR,22R)-22-benzyl-N-(2,4-difluorophenethyl)-13-isobutyl-12-methyl-7,11,14,20-tetraoxo-7,8,9,10,11,12,13,14,17,18,19,19a,20,21,22,23-hexadecahydro-16H-pyrido[2′,1′:6,7][1]oxa[4,7,10,14]tetraazacycloheptadecino[17,16-c]quinoline-9-carboxamide] |  |  | 257 nM | 201% |
| [2H]C([2H])([2H])Oc1cccc(CCNC(=O)[C@@H]2CC(=O)N(C)[C@@H](CC(C)C)C(=O)N(CCC3CCCCC3)CC(=O)N[C@H](Cc3ccccc3)COc3cnc4c(F)cccc4c3C(=O)N2)c1 [Example 384, (3S,7S,13R)-13-benzyl-9-(2-cyclohexylethyl)-18-fluoro-7-isobutyl-N-(3-(methoxy-d3)phenethyl)-6-methyl-1,5,8,11-tetraoxo-1,2,3,4,5,6,7,8,9,10,11,12,13,14-tetradecahydro-[1]oxa[4,7,10,14]tetraazacycloheptadecino[17,16-c]quinoline-3-carboxamide] |  |  | 54 nM | 282% |
